Where a name gives a salt, the structure may show the parent alone.
Tests used:
Conditions in all cases: 72 h
U2OS [1] = test: cell viability relative to DMSO; higher = less toxic
HepG2 [2] = test: as above
Vero E6 [3] = test: as above
Caco-2 [4] = test: as above
Calu-3 [5] = test: as above
U2OS [6] = test: drug sensitivity score (DSS) for viability; higher = more toxic; extreme values may be limits of the assay
HepG2 [7] = test: as above
Vero E6 [8] = test: as above
Caco-2 [9] = test: as above
Calu-3 [10] = test: as above
U2OS [11] = test: relative viability EC50 (midpoint between 100% and the lowest measured viability); higher = less toxic
HepG2 [12] = test: as above
Vero E6 [13] = test: as above
Caco-2 [14] = test: as above
Calu-3 [15] = test: as above

SMILES | cell viability (U2OS [1]; 1 nM) | cell viability (U2OS [1]; 10 nM) | cell viability (U2OS [1]; 100 nM) | cell viability (U2OS [1]; 1000 nM) | cell viability (U2OS [1]; 10000 nM) | cell viability (HepG2 [2]; 1 nM) | cell viability (HepG2 [2]; 10 nM) | cell viability (HepG2 [2]; 100 nM) | cell viability (HepG2 [2]; 1000 nM) | cell viability (HepG2 [2]; 10000 nM) | cell viability (Vero E6 [3]; 1 nM) | cell viability (Vero E6 [3]; 10 nM) | cell viability (Vero E6 [3]; 100 nM) | cell viability (Vero E6 [3]; 1000 nM) | cell viability (Vero E6 [3]; 10000 nM) | cell viability (Caco-2 [4]; 1 nM) | cell viability (Caco-2 [4]; 10 nM) | cell viability (Caco-2 [4]; 100 nM) | cell viability (Caco-2 [4]; 1000 nM) | cell viability (Caco-2 [4]; 10000 nM) | cell viability (Calu-3 [5]; 1 nM) | cell viability (Calu-3 [5]; 10 nM) | cell viability (Calu-3 [5]; 100 nM) | cell viability (Calu-3 [5]; 1000 nM) | cell viability (Calu-3 [5]; 10000 nM) | drug sensitivity score (U2OS [6]) | drug sensitivity score (HepG2 [7]) | drug sensitivity score (Vero E6 [8]) | drug sensitivity score (Caco-2 [9]) | drug sensitivity score (Calu-3 [10]) | relative viability EC50 (U2OS [11]) | relative viability EC50 (HepG2 [12]) | relative viability EC50 (Vero E6 [13]) | relative viability EC50 (Caco-2 [14]) | relative viability EC50 (Calu-3 [15])
CCc1cccc(N(C)C(=N)Nc2cccc3ccccc23)c1 [aptiganel] | 101% | 107% | 98.5% | 97.5% | 88.2% | 97.6% | 97.2% | 96.1% | 96% | 85.8% | 98.2% | 100% | 103% | 96.7% | 88.8% | 98.1% | 95.6% | 96.4% | 94.5% | 82% | 106% | 105% | 93.2% | 92.5% | 75.1% | 0.1 | 0.1 | 0.1 | 0.7 | 1.4 | > 10 µM | > 10 µM | > 10 µM | > 10 µM | > 10 µM
CC(=O)N[C@@H](C=O)[C@@H](O)[C@H](O)[C@H](O)CO [N-acetyl-D-glucosamine] | 102% | 99.7% | 102% | 97.3% | 102% | 91% | 85.7% | 94% | 94.7% | 87.3% | 100% | 110% | 104% | 106% | 87.5% | 93.3% | 97.6% | 113% | 102% | 107% | 103% | 111% | 101% | 93% | 95.9% | 0 | 0 | 0 | 0 | 0 | > 10 µM | > 10 µM | > 10 µM | > 10 µM | > 10 µM
CCOC(N)=O [urethane] | 101% | 102% | 97.6% | 104% | 97.9% | 95.8% | 106% | 85% | 97.4% | 105% | 98.9% | 96.7% | 98% | 100% | 104% | 93.5% | 97.3% | 98.4% | 95.5% | 102% | 105% | 103% | 90.5% | 107% | 112% | 0 | 0 | 0 | 0 | 0 | > 10 µM | > 10 µM | > 10 µM | > 10 µM | > 10 µM
C[S+]([O-])c1ccc(-c2nc(-c3ccc(F)cc3)c(-c3ccncc3)[nH]2)cc1 (stereo not given) | 104% | 102% | 102% | 95.5% | 96.9% | 104% | 105% | 96.1% | 107% | 91.8% | 99% | 112% | 97.2% | 110% | 92.3% | 111% | 97% | 103% | 95.1% | 84% | 106% | 101% | 98.2% | 98.4% | 101% | 0 | 0 | 0 | 0.8 | 0 | > 10 µM | > 10 µM | > 10 µM | > 10 µM | > 10 µM
CN[C@@H]1[C@H](O[C@H]2[C@H](O[C@H]3[C@H](O)[C@@H](O)[C@H](N=C(N)N)[C@@H](O)[C@@H]3N=C(N)N)O[C@@H](C)[C@]2(O)C=O)O[C@@H](CO)[C@H](O)[C@H]1O [STREPTOMYCIN SULFATE [5mM; 10% aq DMSO + 5mM ethanolamine]] | 98.7% | 100% | 94.5% | 99.5% | 95.7% | 101% | 105% | 102% | 101% | 98.2% | 97.8% | 98.5% | 99.9% | 95.2% | 98.3% | 95% | 106% | 88.5% | 95.7% | 98.1% | 87.6% | 102% | 86.6% | 91.9% | 91.7% | 0 | 0 | 0 | 0 | 0 | > 10 µM | > 10 µM | > 10 µM | > 10 µM | > 10 µM
C[C@](N)(Cc1ccc(O)cc1)C(=O)O [metirosine] | 101% | 96% | 101% | 96% | 99.5% | 86.6% | 97.3% | 96.4% | 97.1% | 91.4% | 95.8% | 94.8% | 95.1% | 95.9% | 96.4% | 97.7% | 96.9% | 93.5% | 88.1% | 94.8% | 112% | 113% | 106% | 97.3% | 99.5% | 0 | 0 | 0 | 0 | 0 | > 10 µM | > 10 µM | > 10 µM | > 10 µM | > 10 µM
CCCOc1ccc(C(=O)OCCN(CC)CC)cc1N [proxymetacaine] | 99.9% | 97% | 101% | 97.2% | 102% | 88.5% | 102% | 99.1% | 113% | 97.9% | 97.2% | 95.9% | 91.9% | 97.1% | 107% | 92.8% | 87% | 102% | 90% | 104% | 102% | 96.8% | 94.2% | 101% | 102% | 0 | 0 | 0 | 0 | 0 | > 10 µM | > 10 µM | > 10 µM | > 10 µM | > 10 µM
CC(C)OC(=O)OCOP(=O)(CO[C@H](C)Cn1cnc2c(N)ncnc21)OCOC(=O)OC(C)C [tenofovir-disoproxil] | 96.2% | 101% | 92.6% | 103% | 95.8% | 102% | 101% | 109% | 82.2% | 44.6% | 102% | 94.9% | 96% | 94.3% | 96.7% | 96.3% | 93% | 93.8% | 97.2% | 89% | 97.1% | 104% | 97.1% | 95.4% | 80.8% | 0 | 5.6 | 0 | 0 | 1 | > 10 µM | 1.35 µM | > 10 µM | > 10 µM | > 10 µM
CCc1cc2c(s1)-n1c(C)nnc1CN=C2c1ccccc1Cl [etizolam] | 98.6% | 102% | 98.8% | 97.3% | 96.5% | 104% | 106% | 106% | 93.1% | 108% | 104% | 106% | 105% | 99.8% | 99.6% | 102% | 103% | 96.4% | 94.3% | 99.2% | 101% | 93.2% | 105% | 96.4% | 105% | 0 | 0 | 0 | 0 | 0 | > 10 µM | > 10 µM | > 10 µM | > 10 µM | > 10 µM
C=C(c1ccc(C(=O)O)cc1)c1cc2c(cc1C)C(C)(C)CCC2(C)C [bexarotene] | 94% | 97.9% | 102% | 95% | 92.7% | 94.9% | 96.8% | 107% | 99.7% | 112% | 100% | 102% | 96.6% | 94.3% | 98% | 106% | 90.1% | 95.2% | 86.4% | 86.3% | 92.5% | 95.8% | 102% | 96.7% | 103% | 0 | 0 | 0 | 0.9 | 0 | > 10 µM | > 10 µM | > 10 µM | > 10 µM | > 10 µM
Cc1ccc(C(=O)N(CCCN)[C@@H](c2oc3cc(Cl)ccc3c(=O)c2Cc2ccccc2)C(C)C)cc1 | 100% | 74.6% | 52.7% | 52% | 8.2% | 102% | 45.1% | 36.9% | 34.4% | 0.1% | 99.4% | 87.5% | 44.7% | 42% | -0.2% | 98.9% | 78.2% | 62% | 66.1% | 5.6% | 98.2% | 91.5% | 89.1% | 90% | 0.4% | 18.1 | 27.1 | 19.7 | 14.3 | 7.2 | 0.165 µM | 0.0342 µM | 0.169 µM | 0.469 µM | 2.33 µM
O=C(c1cncc(Br)c1)N1CCC(N2CCCC2)CC1 [UNC669] | 97.1% | 106% | 95.1% | 102% | 93.6% | 98.3% | 102% | 103% | 93.4% | 101% | 101% | 102% | 95.7% | 100% | 97.8% | 99.1% | 105% | 90.5% | 111% | 92.7% | 99.3% | 110% | 93.7% | 98.4% | 98.3% | 0 | 0 | 0 | 0 | 0 | > 10 µM | > 10 µM | > 10 µM | > 10 µM | > 10 µM
C[C@H]1C[C@@H]2[C@H]([C@@H](O)C[C@@]3(C)[C@H]2CC[C@]3(O)C(=O)COC(=O)CCC(=O)O)[C@@]2(C)C=CC(=O)C=C12 [methylprednisolone-sodium-succinate] | 99.2% | 93.8% | 95% | 92.5% | 93.9% | 98.2% | 101% | 89.6% | 103% | 91.2% | 100% | 103% | 101% | 96% | 98.2% | 104% | 94.6% | 98.3% | 99.6% | 92.5% | 108% | 99% | 88.8% | 91.2% | 122% | 0 | 0 | 0 | 0 | 0 | > 10 µM | > 10 µM | > 10 µM | > 10 µM | > 10 µM
CC1Cc2ccccc2N1NC(=O)c1ccc(Cl)c(S(N)(=O)=O)c1 (stereo not given) [indapamide] | 101% | 96.9% | 97.9% | 96.7% | 98.3% | 95.5% | 95.7% | 94.2% | 99.5% | 97.1% | 100% | 100% | 103% | 97.4% | 92.9% | 94.8% | 96% | 94.3% | 94.8% | 93.3% | 105% | 110% | 105% | 96.7% | 96% | 0 | 0 | 0 | 0 | 0 | > 10 µM | > 10 µM | > 10 µM | > 10 µM | > 10 µM

From the supplement of paper PMC13380429
